Test results as given in publication PMC11995724, “Antibiotic target discovery by integrated phenotypic and activity-based profiling of electrophilic fragments” (Cell chemical biology, 2025).

Assay: in vitro
Conditions: human, hek293t cells

First: CC(=O)NCCc1ccc(C(=O)C(C)Cl)cc1 (stereo not shown) [10-B03, N-{2-[4-(2-chloropropanoyl)phenyl]ethyl}acetamide]
Second: CC(Cl)C(=O)c1ccc(C(C)(C)C)cc1 (stereo not shown) [10-D14, 1-(4-tert-butylphenyl)-2-chloropropan-1-one]
The viability at 48 h, 25 µM of the first is higher: 85.1% for the first, 77.6% for the second.

Compared with `Cn1cccc1C(=O)CCl` [10-B04, 2-chloro-1-(1-methyl-1H-pyrrol-2-yl)ethan-1-one], `Cn1ccc(C(=O)CCl)c1` [10-D08, 2-chloro-1-(1-methyl-1H-pyrrol-3-yl)ethan-1-one] is lower in viability at 48 h, 25 µM: 64.6% for the first, 1.8% for the second.

Compared with `O=C(CCl)c1c[nH]c2ccccc12` [10-B05, 2-chloro-1-(1H-indol-3-yl)ethan-1-one], `CCc1cccc2c(C(=O)CCl)c[nH]c12` [10-C12, 2-chloro-1-(7-ethyl-1H-indol-3-yl)ethan-1-one] is lower in viability at 48 h, 25 µM: 111% for the first, 0.148% for the second.

Compared with `O=C(CCl)c1ccc(NC(=O)c2ccccc2)cc1` [10-B06, N-[4-(2-chloroacetyl)phenyl]benzamide], `CCC(=O)Nc1ccc(C(=O)CCl)cc1` [10-C03, N-[4-(2-chloroacetyl)phenyl]propanamide] is higher in viability at 48 h, 25 µM: 1.37% for the first, 74.1% for the second.

Going from `O=C(O)c1coc(C(=O)CCl)c1` [10-B07, 5-(2-chloroacetyl)furan-3-carboxylic acid] to `NC(=O)c1coc(C(=O)CCl)c1` [10-C05, 5-(2-chloroacetyl)furan-3-carboxamide], the viability at 48 h, 25 µM falls from 107% to 60.9%.

First: Cc1cc(C(=O)CCl)c(C)n1CC1CCCO1 (stereo not shown) [10-B08, 2-chloro-1-{2,5-dimethyl-1-[(oxolan-2-yl)methyl]-1H-pyrrol-3-yl}ethan-1-one]
Second: COCCn1c(C)cc(C(=O)CCl)c1C [10-D13, 2-chloro-1-[1-(2-methoxyethyl)-2,5-dimethyl-1H-pyrrol-3-yl]ethan-1-one]
The viability at 48 h, 25 µM of the first is lower: 54.2% for the first, 110% for the second.

First: N#Cc1ccc(N2C(=O)C=CC2=O)cc1 [10-B09, 4-(2,5-dioxo-2,5-dihydro-1H-pyrrol-1-yl)benzonitrile]
Second: N#Cc1ccccc1N1C(=O)C=CC1=O [10-B13, 2-(2,5-dioxo-2,5-dihydro-1H-pyrrol-1-yl)benzonitrile]
The viability at 48 h, 25 µM of the first is higher: 82.1% for the first, 65.2% for the second.

Going from `O=C(CCl)c1ccc(C(F)(F)F)cc1` [10-B10, 2-chloro-1-[4-(trifluoromethyl)phenyl]ethan-1-one] to `O=C(CCl)Cc1ccc(C(F)(F)F)cc1` [10-C19, 1-chloro-3-[4-(trifluoromethyl)phenyl]propan-2-one], the viability at 48 h, 25 µM falls from 13.9% to 1.02%.

Compared with `O=C(c1cc(=O)[nH]c2ccc([N+](=O)[O-])cc12)N1CCSSCC1` [10-B11, 4-(1,2,5-dithiazepane-5-carbonyl)-6-nitro-1,2-dihydroquinolin-2-one], `O=C(Nc1ccc(F)cc1)N1CCSSCC1` [10-D21, N-(4-fluorophenyl)-1,2,5-dithiazepane-5-carboxamide] is lower in viability at 48 h, 25 µM: 111% for the first, 84% for the second.

Going from `Cc1cc(C(=O)CCl)c(C)n1C1CCS(=O)(=O)C1` (stereo not shown) [10-B12, 3-[3-(2-chloroacetyl)-2,5-dimethyl-1H-pyrrol-1-yl]-1lambda6-thiolane-1,1-dione] to `Cc1cc(-n2c(C)cc(C(=O)CCl)c2C)no1` [10-C18, 2-chloro-1-[2,5-dimethyl-1-(5-methyl-1,2-oxazol-3-yl)-1H-pyrrol-3-yl]ethan-1-one], the viability at 48 h, 25 µM falls from 3.75% to 0.308%.

First: Cc1ccc(-n2c(C)cc(C(=O)CCl)c2C)cc1C [10-B14, 2-chloro-1-[1-(3,4-dimethylphenyl)-2,5-dimethyl-1H-pyrrol-3-yl]ethan-1-one]
Second: Cc1ccc(-n2c(C)cc(C(=O)CCl)c2C)cc1F [10-C06, 2-chloro-1-[1-(3-fluoro-4-methylphenyl)-2,5-dimethyl-1H-pyrrol-3-yl]ethan-1-one]
The viability at 48 h, 25 µM of the first is higher: 0.754% for the first, 0.213% for the second.

Going from `COc1cc(Cl)c(C)cc1N1C(=O)C=CC1=O` [10-B15, 1-(4-chloro-2-methoxy-5-methylphenyl)-2,5-dihydro-1H-pyrrole-2,5-dione] to `Cc1c(Cl)cccc1N1C(=O)C=CC1=O` [10-B17, 1-(3-chloro-2-methylphenyl)-2,5-dihydro-1H-pyrrole-2,5-dione], the viability at 48 h, 25 µM rises from 85.2% to 130%.

First: Cc1cc(C(=O)CCl)c(C)n1-c1cccc([N+](=O)[O-])c1 [10-B16, 2-chloro-1-[2,5-dimethyl-1-(3-nitrophenyl)-1H-pyrrol-3-yl]ethan-1-one]
Second: Cc1cc(C(=O)CCl)c(C)n1-c1ccc(Cl)c(Cl)c1 [10-D18, 2-chloro-1-[1-(3,4-dichlorophenyl)-2,5-dimethyl-1H-pyrrol-3-yl]ethan-1-one]
The viability at 48 h, 25 µM of the first is higher: 0.976% for the first, 0.282% for the second.

First: Cc1cc(C(=O)CCl)c(C)n1CCc1ccccc1 [10-B18, 2-chloro-1-[2,5-dimethyl-1-(2-phenylethyl)-1H-pyrrol-3-yl]ethan-1-one]
Second: Cc1cc(C(=O)CCl)c(C)n1Cc1cccs1 [10-D03, 2-chloro-1-{2,5-dimethyl-1-[(thiophen-2-yl)methyl]-1H-pyrrol-3-yl}ethan-1-one]
The viability at 48 h, 25 µM of the first is lower: 0.0262% for the first, 104% for the second.

First: CS(=O)(=O)N1CCc2cc(C(=O)CCl)ccc21 [10-B19, 2-chloro-1-(1-methanesulfonyl-2,3-dihydro-1H-indol-5-yl)ethan-1-one]
Second: CCC(=O)N1CCc2cc(C(=O)CCl)ccc21 [10-C22, 1-[5-(2-chloroacetyl)-2,3-dihydro-1H-indol-1-yl]propan-1-one]
The viability at 48 h, 25 µM of the first is lower: 7.21% for the first, 90.5% for the second.

Compared with `Cc1ccc(C(=O)C(C)Cl)cc1C` (stereo not shown) [10-B20, 2-chloro-1-(3,4-dimethylphenyl)propan-1-one], `Cc1cc(C)c(C(=O)CCl)c(C)c1` [10-C08, 2-chloro-1-(2,4,6-trimethylphenyl)ethan-1-one] is higher in viability at 48 h, 25 µM: 85% for the first, 97.8% for the second.

Compared with `O=C(NC1CC1)C1(C(=O)N2CCSSCC2)CCC1` [10-B21, N-cyclopropyl-1-(1,2,5-dithiazepane-5-carbonyl)cyclobutane-1-carboxamide], `COc1ccc(S(=O)(=O)N2CCSSCC2)cc1C` [10-D11, 5-(4-methoxy-3-methylbenzenesulfonyl)-1,2,5-dithiazepane] is higher in viability at 48 h, 25 µM: 95.1% for the first, 105% for the second.

Compared with `CCOC(=O)c1c(C)[nH]c(C(=O)C(C)Cl)c1C` (stereo not shown) [10-B22, ethyl 5-(2-chloropropanoyl)-2,4-dimethyl-1H-pyrrole-3-carboxylate], `CCOC(=O)c1c(C)[nH]c(C)c1C(=O)CCl` [10-C10, ethyl 4-(2-chloroacetyl)-2,5-dimethyl-1H-pyrrole-3-carboxylate] is higher in viability at 48 h, 25 µM: 95.2% for the first, 101% for the second.

First: CCCc1ccc(C(=O)CCl)cc1 [10-C04, 2-chloro-1-(4-propylphenyl)ethan-1-one]
Second: CS(=O)(=O)NCCc1ccc(C(=O)CCl)cc1 [10-D06, N-{2-[4-(2-chloroacetyl)phenyl]ethyl}methanesulfonamide]
The viability at 48 h, 25 µM of the first is higher: 54.6% for the first, 18.3% for the second.

Compared with `C=CS(=O)(=O)Nc1ccccc1` [10-C07, N-phenylethene-1-sulfonamide], `CS(=O)(=O)Nc1ccc(C(=O)CCl)cc1` [10-D19, N-[4-(2-chloroacetyl)phenyl]methanesulfonamide] is higher in viability at 48 h, 25 µM: 30.8% for the first, 76.6% for the second.

Compared with `O=C(CCl)c1cn(-c2cccc(C(F)(F)F)c2)nn1` [10-C09, 2-chloro-1-{1-[3-(trifluoromethyl)phenyl]-1H-1,2,3-triazol-4-yl}ethan-1-one], `O=C(CCl)Cc1cccc(F)c1` [10-C11, 1-chloro-3-(3-fluorophenyl)propan-2-one] is higher in viability at 48 h, 25 µM: 2.55% for the first, 38.4% for the second.

First: O=C(CCl)c1ccc(O)cc1O [10-C14, 2-chloro-1-(2,4-dihydroxyphenyl)ethan-1-one]
Second: COc1ccc(C(=O)CCl)cc1Cl [10-D10, 2-chloro-1-(3-chloro-4-methoxyphenyl)ethan-1-one]
The viability at 48 h, 25 µM of the first is higher: 97.4% for the first, 1.84% for the second.

Going from `Cn1ccnc1C(=O)CCl` [10-C15, 2-chloro-1-(1-methyl-1H-imidazol-2-yl)ethan-1-one] to `Cc1cc(C(=O)CCl)c(C)n1-c1ccccn1` [10-C16, 2-chloro-1-[2,5-dimethyl-1-(pyridin-2-yl)-1H-pyrrol-3-yl]ethan-1-one], the viability at 48 h, 25 µM rises from 67.6% to 79.6%.

First: O=C(CCl)C1CCC2(CC1)CC2 [10-C17, 2-chloro-1-{spiro[2.5]octan-6-yl}ethan-1-one]
Second: N#CC(C(=O)CCl)=C(c1ccc(F)cc1)N1CCOCC1 [10-C20, 4-chloro-2-[(4-fluorophenyl)(morpholin-4-yl)methylidene]-3-oxobutanenitrile]
The viability at 48 h, 25 µM of the first is higher: 60.1% for the first, 53.6% for the second.

First: O=C1C=CC(=O)N1CCc1ccc(F)cc1 [10-C21, 1-[2-(4-fluorophenyl)ethyl]-2,5-dihydro-1H-pyrrole-2,5-dione]
Second: O=C1C=CC(=O)N1c1ccccc1F [10-D17, 1-(2-fluorophenyl)-2,5-dihydro-1H-pyrrole-2,5-dione]
The viability at 48 h, 25 µM of the first is lower: 21.9% for the first, 90.3% for the second.

First: CC(C)C(=O)Nc1ccc(C(=O)CCl)cc1 [10-D04, N-[4-(2-chloroacetyl)phenyl]-2-methylpropanamide]
Second: COC(=O)c1ccc2[nH]cc(C(=O)CCl)c2c1 [10-D05, methyl 3-(2-chloroacetyl)-1H-indole-5-carboxylate]
The viability at 48 h, 25 µM of the first is higher: 30.8% for the first, 3.01% for the second.

Compared with `O=C1C=CC(=O)N1c1ccc2ccccc2c1` [10-D07, 1-(naphthalen-2-yl)-2,5-dihydro-1H-pyrrole-2,5-dione], `O=C1C=CC(=O)N1c1ccc(F)c(Cl)c1` [10-D15, 1-(3-chloro-4-fluorophenyl)-2,5-dihydro-1H-pyrrole-2,5-dione] is higher in viability at 48 h, 25 µM: 74.4% for the first, 79.2% for the second.

First: CC(=O)Nc1cccc(N2C(=O)C=CC2=O)c1 [10-D09, N-[3-(2,5-dioxo-2,5-dihydro-1H-pyrrol-1-yl)phenyl]acetamide]
Second: O=C(CCl)Cc1c(F)cccc1Cl [10-D20, 1-chloro-3-(2-chloro-6-fluorophenyl)propan-2-one]
The viability at 48 h, 25 µM of the first is higher: 104% for the first, 37% for the second.

First: Cc1csc(C(C#N)C(=O)CCl)n1 (stereo not shown) [10-D12, 4-chloro-2-(4-methyl-1,3-thiazol-2-yl)-3-oxobutanenitrile]
Second: O=C(CCl)c1cc(Cl)sc1Cl [10-D16, 2-chloro-1-(2,5-dichlorothiophen-3-yl)ethan-1-one]
The viability at 48 h, 25 µM of the first is higher: 6.6% for the first, 1.77% for the second.
